According to ChEMBL document CHEMBL4219072, “Enhancing the anti-biofilm activity of 5-aryl-2-aminoimidazoles through nature inspired dimerisation” (Bioorg Med Chem, 2018):

Assays:
Staphylococcus aureus [1] = experiment: Antibiofilm activity against Staphylococcus aureus SH1000 after 48 hrs by crystal violet staining based assay; format: functional, organism-based; conditions: SH1000, 48 h
Escherichia coli [2] = experiment: Antibiofilm activity against Escherichia coli TG1 after 24 hrs by crystal violet staining based assay; format: functional, organism-based; conditions: TG1, 24 h
Salmonella typhimurium [3] = experiment: Inhibition of planktonic growth of Salmonella typhimurium ATCC 14028 after 24 hrs; format: organism-based, Salmonella enterica subsp. enterica serovar Typhimurium; conditions: Salmonella enterica, ATCC 14028, 24 h
Pseudomonas aeruginosa = experiment: Antibiofilm activity against Pseudomonas aeruginosa PA14 after 24 hrs by crystal violet staining based assay; format: functional, organism-based; conditions: PA14, 24 h
Escherichia coli [4] = experiment: Inhibition of planktonic growth of Escherichia coli TG1 after 24 hrs; format: organism-based; conditions: TG1, 24 h
Staphylococcus aureus [5] = experiment: Inhibition of planktonic growth of Staphylococcus aureus SH1000 after 48 hrs; format: organism-based; conditions: SH1000, 48 h
Salmonella typhimurium [6] = experiment: Antibiofilm activity against Salmonella typhimurium ATCC 14028 after 24 hrs by crystal violet staining based assay; format: functional, organism-based, Salmonella enterica subsp. enterica serovar Typhimurium; conditions: Salmonella enterica, ATCC 14028, 24 h

Compound	IC50 (Staphylococcus aureus [1])	IC50 (Escherichia coli [2])	IC50 (Pseudomonas aeruginosa)	IC50 (Salmonella typhimurium [6])	IC50 (Salmonella typhimurium [3])	IC50 (Escherichia coli [4])	IC50 (Staphylococcus aureus [5])
Nc1ncc(-c2ccccc2)[nH]1	> 800 µM	146 µM	–	–	–	–	–
Nc1ncc(-c2ccc(F)cc2)[nH]1	> 800 µM	75.5 µM	–	–	–	–	–
Nc1ncc(-c2ccc(Cl)cc2)[nH]1	121 µM	18 µM	–	–	–	–	–
Nc1ncc(-c2ccc(Br)cc2)[nH]1	152 µM	8.8 µM	–	–	–	–	–
Nc1ncc(-c2ccc(Br)cc2)n1CCCn1c(-c2ccc(Br)cc2)cnc1N	15 µM	6.3 µM	2.5 µM	2.7 µM	11.5 µM	9.93 µM	22 µM
c1ccc(-c2cnc(NCCCCCCCCNc3ncc(-c4ccccc4)[nH]3)[nH]2)cc1	300 µM	19.3 µM	21.3 µM	11.2 µM	> 800 µM	48.7 µM	230 µM
c1ccc(-c2cnc(NCCCCCCNc3ncc(-c4ccccc4)[nH]3)[nH]2)cc1	99.4 µM	2 µM	23.7 µM	14.2 µM	41.3 µM	2.58 µM	113 µM
Nc1ncc(-c2ccc(F)cc2)n1CCCCCCCCn1c(-c2ccc(F)cc2)cnc1N	22.4 µM	7 µM	12.2 µM	1.5 µM	100 µM	7.13 µM	11.7 µM
c1ccc(-c2cnc(NCCCCCCCNc3ncc(-c4ccccc4)[nH]3)[nH]2)cc1	400 µM	11.8 µM	4.6 µM	12.6 µM	> 800 µM	12.9 µM	689 µM
c1ccc(-c2cnc(NCCCCCNc3ncc(-c4ccccc4)[nH]3)[nH]2)cc1	180 µM	5.2 µM	1.2 µM	4.6 µM	59.6 µM	19.9 µM	108 µM
Nc1ncc(-c2ccccc2)n1CCCCn1c(-c2ccccc2)cnc1N	275 µM	27.5 µM	23.6 µM	13.5 µM	59.3 µM	50.4 µM	255 µM
Nc1ncc(-c2ccccc2)n1CCCCCCn1c(-c2ccccc2)cnc1N	51.3 µM	2.9 µM	4 µM	3 µM	100 µM	> 800 µM	53.8 µM
Nc1ncc(-c2ccccc2)n1CCCCCCCCn1c(-c2ccccc2)cnc1N	22.2 µM	2.9 µM	8.7 µM	16.1 µM	> 400 µM	6.13 µM	15.3 µM
Nc1ncc(-c2ccccc2)n1CCCn1c(-c2ccccc2)cnc1N	0.4 µM	26.6 µM	25.2 µM	15.3 µM	147 µM	62.4 µM	572 µM
Nc1ncc(-c2ccc(F)cc2)n1CCCn1c(-c2ccc(F)cc2)cnc1N	171 µM	7.5 µM	11.6 µM	7.4 µM	103 µM	10.7 µM	124 µM
Nc1ncc(-c2ccccc2)n1CCCCCn1c(-c2ccccc2)cnc1N	96.1 µM	10.5 µM	33.1 µM	20.2 µM	89.8 µM	> 800 µM	85.7 µM
Nc1ncc(-c2ccc(Br)cc2)n1CCCCCCCCn1c(-c2ccc(Br)cc2)cnc1N	2.8 µM	0.8 µM	4.5 µM	7.7 µM	> 400 µM	2.99 µM	2 µM
Nc1ncc(-c2ccccc2)n1CCCCCCCn1c(-c2ccccc2)cnc1N	11.7 µM	8 µM	3.7 µM	3.7 µM	> 400 µM	> 800 µM	32.7 µM

More lines, main results first:

IC50 (Staphylococcus aureus [1])	IC50 (Escherichia coli [2])	IC50 (Pseudomonas aeruginosa)	IC50 (Salmonella typhimurium [6])	Compound	IC50 (Salmonella typhimurium [3])	IC50 (Escherichia coli [4])	IC50 (Staphylococcus aureus [5])
10.6 µM	6.1 µM	4.9 µM	3.3 µM	Nc1ncc(-c2ccc(Cl)cc2)n1CCCCCCCn1c(-c2ccc(Cl)cc2)cnc1N	200 µM	> 400 µM	16.2 µM
26.4 µM	4.5 µM	3.1 µM	4.1 µM	Nc1ncc(-c2ccc(Cl)cc2)n1CCCn1c(-c2ccc(Cl)cc2)cnc1N	11 µM	7.56 µM	26.4 µM
48 µM	1.8 µM	11.6 µM	3.2 µM	Nc1ncc(-c2ccc(F)cc2)n1CCCCCCn1c(-c2ccc(F)cc2)cnc1N	23.8 µM	> 800 µM	34.4 µM
8.6 µM	4 µM	3.2 µM	4.8 µM	Nc1ncc(-c2ccc(Cl)cc2)n1CCCCCCn1c(-c2ccc(Cl)cc2)cnc1N	300 µM	> 400 µM	7.4 µM
7.2 µM	6.4 µM	3.1 µM	3.9 µM	Nc1ncc(-c2ccc(Br)cc2)n1CCCCn1c(-c2ccc(Br)cc2)cnc1N	200 µM	6.09 µM	9.17 µM
180 µM	12.3 µM	3.1 µM	5.3 µM	Nc1ncc(-c2ccc(Cl)cc2)n1CCCCn1c(-c2ccc(Cl)cc2)cnc1N	64 µM	16.6 µM	130 µM
24.4 µM	25.4 µM	11.1 µM	11.4 µM	Nc1ncc(-c2ccc(F)cc2)n1CCCCn1c(-c2ccc(F)cc2)cnc1N	50 µM	77.3 µM	27 µM
60.7 µM	7.5 µM	12 µM	4.8 µM	Nc1ncc(-c2ccc(F)cc2)n1CCCCCn1c(-c2ccc(F)cc2)cnc1N	85.4 µM	3.74 µM	59.7 µM
5.5 µM	2.3 µM	1.1 µM	1.7 µM	Nc1ncc(-c2ccc(Br)cc2)n1CCCCCCCn1c(-c2ccc(Br)cc2)cnc1N	> 400 µM	> 400 µM	8.02 µM
23.7 µM	7.2 µM	7.1 µM	2.9 µM	Nc1ncc(-c2ccc(F)cc2)n1CCCCCCCn1c(-c2ccc(F)cc2)cnc1N	50 µM	> 100 µM	34 µM
7.4 µM	6.3 µM	6.1 µM	4 µM	Nc1ncc(-c2ccc(Br)cc2)n1CCCCCn1c(-c2ccc(Br)cc2)cnc1N	35.9 µM	6.7 µM	8.76 µM
13.5 µM	12 µM	6.6 µM	5.1 µM	Nc1ncc(-c2ccc(Cl)cc2)n1CCCCCn1c(-c2ccc(Cl)cc2)cnc1N	19.1 µM	13.4 µM	24.3 µM
6.1 µM	1.1 µM	1.3 µM	2 µM	Nc1ncc(-c2ccc(Cl)cc2)n1CCCCCCCCn1c(-c2ccc(Cl)cc2)cnc1N	47.8 µM	2.8 µM	3.9 µM
11.2 µM	8.2 µM	5.8 µM	8.4 µM	Nc1ncc(-c2ccc(Br)cc2)n1CCCCCCn1c(-c2ccc(Br)cc2)cnc1N	> 400 µM	> 400 µM	11.1 µM
